Reference: patent publication US20220125042A1, “CRYOPROTECTANT AND/OR CRYOPRESERVANT COMPOSITION, METHODS AND USES THEREOF” (UNIVERSIDADE NOVA DE LISBOA, priority 2017, published 2022)

Assays:
[1] = tested on: L929 cell lines; assay: Direct contact of NADES with cell culture, viability by MTS assay; type: cell-based; conditions: FIG. 3
Description: In an embodiment, the L929 cell lines were grown in DMEM (Sigma, USA), supplemented with 10% heat-inactivetes fetal bovine serum (FBS, Biochron AG, Germany) and 1% antibiotic-antimicotic (Gibco, USA). The cells were cultured in a humidified atmosphere of 37° C., with 5% CO2.
In an embodiment, the viability of the systems prepared was measured using a method of direct contact with cells (Direct−contact of NADES with cell culture). The cells were seeded onto a 96-well plate for 24 h in the total 1×10^4 cells/well. After 24 h, the medium was removed and extracts with different percentage of NADES, in particular 1%, 5%, 10% and 20% in culture medium were added. The viability of the cells cultured with these extracts was determined by MTS assay, after 24 h and 72 h.
In an embodiment, the MTS cell viability assay was conducted as follows: the influence of the cryopreservants was determined by MTS assay (Cell Titer 96 Aqueous One Solution Cell Proliferation Assay, Promega, USA) after 24 h and 72 h of culture. […] The absorbance was measured at a wavelength of 490 nm using a microplate spectrometer (Synergy HT, Bio-TEK, USA). To the results of absorbance was subtracting the absorbance obtained by blank (culture medium MTS with MTS reagent). […]

[2] = tested on: L929 cell line; assay: Cryopreservation (freezing/thawing) of cells with cryoprotective agent; morphology, live-dead, DAPI-Phalloidin and MTS viability after thawing; type: cell-based; conditions: 10% cryopreservant, FIG. 4
Description: In an embodiment, the cells were freezed and thawed, in particular the cells were collected by centrifugation (300 rpm for 5 min) and suspended in cool mixture with FBS and cryopreservant (DMSO or Treh-Gly; 5% and 10% cryopresenvant in the FBS). The cells and freezing medium were dispensed into cryotubes (Nunc) (1×10^6 cells/1 mL), and immediately placed into a freezing box (Mr. Frosty) at −20° C. for 2 h. Latter they were placed for 24 h at −80° C. and then the cryotubes were placed in liquid nitrogen. The cells were frozen for 1, 2 and 3 months. As control trehalose and glycerol alone were used in the same concentration. […] In an embodiment, the MTS cell viability assay was conducted as follows: the influence of the cryopreservants was determined by MTS assay (Cell Titer 96 Aqueous One Solution Cell Proliferation Assay, Promega, USA) after 24 h and 72 h of culture. […] The absorbance was measured at a wavelength of 490 nm using a microplate spectrometer (Synergy HT, Bio-TEK, USA). To the results of absorbance was subtracting the absorbance obtained by blank (culture medium MTS with MTS reagent). In an embodiment, the live/dead cell viability assay was used (calcein AM/propidium iodide (PI) staining) (n=5 samples per well) to evaluated cell viability. […] In an embodiment, in vitro biological evaluation of NADES performance as cryopreservant was assessed using the L929 cell line. […]

SMILES	cell viability in contact with cells ([1]; 10% and 20% in the culture media)	cell viability in contact with cells ([1]; low concentrations, 1 or 5% in culture media)	morphological analysis and cell viability after cryopreservation [2]
C[S+](C)[O-] [DMSO]	cell dead	very low viability	
OCC(O)CO [glycerol]			somewhat compromised
OC[C@H]1O[C@H](O[C@H]2O[C@H](CO)[C@@H](O)[C@H](O)[C@H]2O)[C@H](O)[C@@H](O)[C@@H]1O [trehalose]			somewhat compromised
